Data published in PMC8562313, “Cytotoxicity of Amino‐BODIPY Modulated via Conjugation with 2‐Phenyl‐3‐Hydroxy‐4(1H)‐Quinolinones” (ChemistryOpen, 2021).
Read-outs that look alike come from different tables or passages of the source.

Key:
[1] = test system: HCT116 (colorectal carcinoma); assay: Cytotoxic activity against HCT116; type: cell-based; conditions: Homo sapiens, HCT-116; average of at least three independent experiments
Procedure: (§1) Finally, the amino‐BODIPY 16 and all prepared conjugates 1–15 were tested for cytotoxic activity against selected cancer cell lines (Table 1). The tests were performed on cancer cell lines derived from solid tumors as well as hematological malignancies: CCRF‐CEM (acute lymphoblastic leukemia), K562 (chronic myeloid leukemia), A549 (lung adenocarcinoma), colorectal carcinoma cell lines HCT116 with and without functional p53 protein HCT116p53, respectively. The panel also included chemoresistant subclone CCRF‐CEM‐DNR (resistant to daunorubicine) overexpressing P‐glycoprotein and/or lung resistance‐related protein (LRP), which are pumps or detoxifying systems responsible for the most common forms of clinical resistance. To evaluate non‐tumor cells′ toxicity, we used human skin fibroblast cell line BJ and lung fibroblast cell line MRC‐5. […] This dye is also slightly toxic to normal fibroblast BJ and MRC with IC50>40 μM and low‐density seeding variants BJ‐LD and MRC‐LD with higher proliferation and no contact inhibition. Connection of amino‐BODIPY 16 with 3‐HQs via non‐cleavable maleimide linker (conjugates 6–10) as well as via cleavable linker (compounds 11–15) causes higher selectivity toward CCRF‐CEM lines. […] The selectivity of conjugates toward leukemia cells could be caused by interaction with a specific target for the CCRF‐CEM or K562 cells, respectively, or by particular transport to these cell lines. The later reason could explain the lower toxicity of amino‐BODIPY released from the conjugate compared to free amino‐BODIPY 16 directly applied to the cells.

[2] = test system: skin fibroblast cell line BJ; assay: Toxicity to non-tumor fibroblasts BJ; type: cell-based, human
Procedure: as §1

[3] = test system: CCRF‐CEM‐DNR (resistant to daunorubicine); assay: Cytotoxic activity against CEM-DNR; type: cell-based; conditions: Homo sapiens, daunorubicine-resistant subclone, average of at least three independent experiments
Procedure: as §1

[4] = test system: A549 (lung adenocarcinoma); assay: Cytotoxic activity against A549; type: cell-based; conditions: Homo sapiens, average of at least three independent experiments
Procedure: as §1

[5] = test system: HCT116p53 (colorectal carcinoma); assay: Cytotoxic activity against HCT116p53; type: cell-based; conditions: average of at least three independent experiments
Procedure: as §1

[6] = test system: CCRF‐CEM (acute lymphoblastic leukemia); assay: Cytotoxic activity against CCRF-CEM; type: cell-based; conditions: Homo sapiens, average of at least three independent experiments
Procedure: as §1

[7] = test system: BJ‐LD (low‐density seeding variant); assay: Toxicity to non-tumor fibroblasts BJ-LD; type: cell-based; conditions: Homo sapiens, Fibroblast, higher proliferation, no contact inhibition
Procedure: as §1

[8] = test system: MRC‐LD (low‐density seeding variant); assay: Toxicity to non-tumor fibroblasts MRC-LD; type: cell-based; conditions: Homo sapiens, Fibroblast, higher proliferation, no contact inhibition
Procedure: as §1

[9] = test system: K562‐TAX; assay: Cytotoxic activity against K562-TAX; type: cell-based; conditions: average of at least three independent experiments
[10] = test system: U2OS; assay: Cytotoxic activity against U2OS; type: cell-based; conditions: Homo sapiens, average of at least three independent experiments
[11] = test system: lung fibroblast cell line MRC‐5; assay: Toxicity to non-tumor fibroblasts MRC; type: cell-based, human
Procedure: as §1

[12] = test system: K562 (chronic myeloid leukemia); assay: Cytotoxic activity against K562; type: cell-based; conditions: Homo sapiens, average of at least three independent experiments
Procedure: as §1

[13] = test system: cancer cell lines; conditions: cited from earlier work
[14] = GSH-mediated cleavage monitored by LC/MS; type: physicochemical; conditions: 5 mM GSH, 5 μM conjugate 11 in HEPES buffer, 7.4 pH, 37 °C
Description: As reported previously, the GSH mediated cleavage of the disulfide linker results in the release of the 3‐HQ derivative together with the Amino‐BODIPY.[30] […] As the mechanism of GSH‐mediated cleavage and LC/MS analysis in Figure 2A and 2B depict nucleophilic thiol group on glutathione attacks the disulfide bond resulting in the formation of GSH adducts 19 and 20. Intermediate 19 further reacts with excess of GSH and self‐immolative linker is cyclized while free Amino‐BODIPY 16 is released.
Figure 2 (A) Mechanism of GSH‐mediated cleavage of conjugate 11 (5 mM GSH, 5 μM conjugate 11 in HEPES buffer, 7.4 pH, 37 °C). (B) Time‐dependent stability of compounds 1, 11, 16, 19 and 20 monitored by LC/MS. (C) Excitation/emission spectra of the conjugate 11 and the released Amino‐BODIPY 16 enabling the OFF‐ON fluorescence effect when excitation at 485 nm and emission at 530 nm is applied.

[15] = Homo sapiens, MRC5, non-tumor lung fibroblasts

Row | SMILES | IC50 [1] | IC50 ([2]; Homo sapiens, Skin fibroblast) | IC50 [3] | IC50 [4] | IC50 [5] | IC50 [6] | IC50 [7] | IC50 [8] | IC50 [9] | IC50 [10] | IC50 [11, 15] | IC50 [12] | Activity and selectivity against cancer cell lines [13] | Stability of cleavage intermediate by LC/MS [14] | Activity against cancer cells [13] | Cytotoxicity against cancer cells [13] | IC50 [2] | IC50 ([11]; non-tumor lung fibroblasts) | Activity and selectivity toward cancer cells [13] | Activity against various cancer cell lines ([13]; reported previously, no reference given)
1 | Cc1cc(C)n2c1C=C1C=CC(NC(=O)OCCSSCC(NC(=O)c3ccc4c(=O)c(O)c(-c5ccc(F)cc5)[nH]c4c3)C(N)=O)=[N+]1[B-]2(F)F (stereo not drawn) [Compound 12] | > 50 µM | > 50 µM | 26.5 µM | 46.4 µM | 49.8 µM | 8.14 µM | > 50 µM | > 50 µM | 33.6 µM | 42.3 µM | > 50 µM | 44.6 µM |  |  |  |  |  |  |  | 
2 | Cc1cc(C)n2c1C=C1C=CC(NC(=O)OCCCN3C(=O)CC(SCC(NC(=O)c4ccc5c(=O)c(O)c(-c6cc(Cl)c(N)c(Cl)c6)[nH]c5c4)C(N)=O)C3=O)=[N+]1[B-]2(F)F (stereo not drawn) [Compound 8] | > 50 µM | > 50 µM | > 50 µM | > 50 µM | > 50 µM | 12.7 µM | > 50 µM | > 50 µM | > 50 µM | > 50 µM | > 50 µM | > 50 µM |  |  |  |  |  |  |  | 
3 | Cc1cc(C)n2c1C=C1C=CC(NC(=O)OCCSSCC(NC(=O)c3ccc4c(=O)c(O)c(-c5ccccc5)[nH]c4c3)C(N)=O)=[N+]1[B-]2(F)F (stereo not drawn) [Compound 11] | > 50 µM | > 50 µM | 34.4 µM | 49.9 µM | > 50 µM | 19.7 µM | > 50 µM | > 50 µM | 39.8 µM | > 50 µM | > 50 µM | 49.8 µM |  |  |  |  |  |  |  | 
4 | Cc1cc(C)n2c1C=C1C=CC(NC(=O)OCCCN3C(=O)CC(SCC(NC(=O)c4ccc5c(=O)c(O)c(-c6ccc(N7CCCCC7)c([N+](=O)[O-])c6)[nH]c5c4)C(N)=O)C3=O)=[N+]1[B-]2(F)F (stereo not drawn) [Compound 9] | > 50 µM | > 50 µM | > 50 µM | > 50 µM | > 50 µM | > 50 µM |  |  | > 50 µM | > 50 µM | > 50 µM | 4.05 µM |  |  |  |  |  |  |  | 
5 | O=c1c(O)c(-c2ccc(N3CCCCC3)c([N+](=O)[O-])c2)[nH]c2ccccc12 [2‐(3‐nitro‐4‐piperid‐1‐ylphenyl)‐3‐hydroxy‐4(1H)‐quinolinone] |  |  |  |  |  |  |  |  |  |  |  |  | significant activity but low selectivity |  |  |  |  |  |  | 
6 | NC(=O)C(CSSC[C@H](NC(=O)CC[C@H](N)C(=O)O)C(=O)NCC(=O)O)NC(=O)c1ccc2c(=O)c(O)c(-c3ccccc3)[nH]c2c1 (stereo partly drawn) [Compound 20] |  |  |  |  |  |  |  |  |  |  |  |  |  | relatively stable |  |  |  |  |  | 
7 | O=c1c(O)c(-c2ccccc2)[nH]c2ccccc12 [2‐phenyl‐3‐hydroxy‐4(1H)‐quinolinone] |  |  |  |  |  |  |  |  |  |  |  |  |  |  | no activity |  |  |  |  | 
8 | Cc1cc(C)n2c1C=C1C=CC(NC(=O)OCCSSCC(NC(=O)c3ccc4c(=O)c(O)c(-c5ccc(N6CCCCC6)c([N+](=O)[O-])c5)[nH]c4c3)C(N)=O)=[N+]1[B-]2(F)F (stereo not drawn) [Compound 14] | 39.7 µM | > 50 µM | 37.9 µM | 46.3 µM | 42.6 µM | 1.52 µM | > 50 µM | > 50 µM | 40.6 µM | 44.1 µM | > 50 µM | 29.9 µM |  |  |  |  |  |  |  | 
9 | O=c1c(O)c(-c2ccc(F)cc2)[nH]c2ccccc12 [2‐(4‐fluorophenyl)‐3‐hydroxy‐4(1H)‐quinolinone] |  |  |  |  |  |  |  |  |  |  |  |  |  |  |  | low cytotoxicity |  |  |  | 
10 | Cc1cc(C)n2c1C=C1C=CC(N)=[N+]1[B-]2(F)F [Compound 16, amino‐BODIPY] | 11.6 µM | > 40 µM | 5.08 µM | 47.2 µM | 12.7 µM | 4.25 µM | 28.1 µM | 26.9 µM | 6.41 µM | 19.8 µM | > 40 µM | 3.29 µM |  |  |  |  | 49.7 µM | 40.1 µM |  | 
11 | NC(=O)c1cc(-c2[nH]c3ccccc3c(=O)c2O)ccc1N1CCCCC1 [2‐(3‐carboxamide‐4‐piperid‐1‐ylphenyl)‐3‐hydroxy‐4(1H)‐quinolinone] |  |  |  |  |  |  |  |  |  |  |  |  |  |  |  |  |  |  | significant activity and increased selectivity | 
12 | Cc1cc(C)n2c1C=C1C=CC(NC(=O)OCCCN3C(=O)CC(SCC(NC(=O)c4ccc5c(=O)c(O)c(-c6ccc(F)cc6)[nH]c5c4)C(N)=O)C3=O)=[N+]1[B-]2(F)F (stereo not drawn) [Compound 7] | > 50 µM | > 50 µM | > 50 µM | > 50 µM | > 50 µM | 6.37 µM | > 50 µM | > 50 µM | > 50 µM | > 50 µM | > 50 µM | > 50 µM |  |  |  |  |  |  |  | 
13 | Nc1c(Cl)cc(-c2[nH]c3ccccc3c(=O)c2O)cc1Cl [2‐(4‐amino‐3,5‐dichlorophenyl)‐3‐hydroxy‐4(1H)‐quinolinone] |  |  |  |  |  |  |  |  |  |  |  |  |  |  |  |  |  |  |  | active
14 | Cc1cc(C)n2c1C=C1C=CC(NC(=O)OCCSSCC(NC(=O)c3ccc4c(=O)c(O)c(-c5ccc(N6CCCCC6)c(C(N)=O)c5)[nH]c4c3)C(N)=O)=[N+]1[B-]2(F)F (stereo not drawn) [Compound 15] | > 50 µM | > 50 µM | 46.2 µM | > 50 µM | > 50 µM | > 50 µM | > 50 µM | > 50 µM | 46.2 µM | > 50 µM | > 50 µM | > 50 µM |  |  |  |  |  |  |  | 
15 | Cc1cc(C)n2c1C=C1C=CC(NC(=O)OCCCN3C(=O)CC(SCC(NC(=O)c4ccc5c(=O)c(O)c(-c6ccccc6)[nH]c5c4)C(N)=O)C3=O)=[N+]1[B-]2(F)F (stereo not drawn) [Compound 6] | > 50 µM | > 50 µM | > 50 µM | > 50 µM | > 50 µM | 14.6 µM | > 50 µM | > 50 µM | > 50 µM | > 50 µM | > 50 µM | > 50 µM |  |  |  |  |  |  |  | 
16 | Cc1cc(C)n2c1C=C1C=CC(NC(=O)OCCSSCC(NC(=O)c3ccc4c(=O)c(O)c(-c5cc(Cl)c(N)c(Cl)c5)[nH]c4c3)C(N)=O)=[N+]1[B-]2(F)F (stereo not drawn) [Compound 13] | > 50 µM | > 50 µM | 40.1 µM | > 50 µM | > 50 µM | 2.59 µM | > 50 µM | > 50 µM | 41.8 µM | > 50 µM | > 50 µM | 41.4 µM |  |  |  |  |  |  |  | 
17 | Cc1cc(C)n2c1C=C1C=CC(NC(=O)OCCCN3C(=O)CC(SCC(NC(=O)c4ccc5c(=O)c(O)c(-c6ccc(N7CCCCC7)c(C(N)=O)c6)[nH]c5c4)C(N)=O)C3=O)=[N+]1[B-]2(F)F (stereo not drawn) [Compound 10] | > 50 µM | > 50 µM | > 50 µM | > 50 µM | > 50 µM | 5.1 µM | > 50 µM | > 50 µM | 49.6 µM | > 50 µM | > 50 µM | > 50 µM |  |  |  |  |  |  |  | 
